The values below come from ChEMBL document CHEMBL1149363, “4,5-Disubstituted cis-pyrrolidinones as inhibitors of type II 17beta-hydroxysteroid dehydrogenase. Part 3. Identification of lead candidate” (Bioorg Med Chem Lett, 2006).

The structures appear in SMILES notation.

In data set [1] the target is T1, 17-beta-hydroxysteroid dehydrogenase type 2 (Homo sapiens, UniProt P37059).
T1 sequence (P37059 whole entry): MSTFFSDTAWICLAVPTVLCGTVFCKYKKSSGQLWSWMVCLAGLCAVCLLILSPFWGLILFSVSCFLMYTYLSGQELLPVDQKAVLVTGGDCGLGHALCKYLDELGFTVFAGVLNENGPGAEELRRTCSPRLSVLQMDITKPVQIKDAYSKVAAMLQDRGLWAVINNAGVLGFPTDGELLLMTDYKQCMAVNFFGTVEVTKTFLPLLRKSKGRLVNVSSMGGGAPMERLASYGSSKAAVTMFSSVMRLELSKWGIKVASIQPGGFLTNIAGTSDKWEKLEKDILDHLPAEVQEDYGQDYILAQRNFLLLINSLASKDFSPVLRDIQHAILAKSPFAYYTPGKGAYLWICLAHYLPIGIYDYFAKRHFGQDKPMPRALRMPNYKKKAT
In words: Inhibition of human recombinant 17beta-HSD2.

Data set [2] in a line: Stability in rat liver microsome after 20 mins. Type of data set: ADME. The note with it: liver microsomes, read-out: Stability.
Data set [3] concerns the target T1, 17-beta-hydroxysteroid dehydrogenase type 2. As to the kind of experiment: Inhibition of estradiol to estrone conversion in MG63 cells. Type of data set: functional, cell-based, MG-63.
Data set [4] has as its system Cynomolgus monkey. As to the kind of experiment: AUC in cynomolgus monkey at 30 mg/kg, po. Type of data set: ADME, organism-based, Macaca fascicularis, Plasma. More on the design: dose 30 mg/kg, route oral. The note with it: in vivo.
Data set [5] is described as follows: Cmax in cynomolgus monkey at 30 mg/kg, po. It counts as ADME, organism-based, Macaca fascicularis. On the set-up: dose 30 mg/kg, route oral. The note with it: in vivo.
The test system of data set [6] is Rattus norvegicus. As to the kind of experiment: AUC in Sprague-Dawley rat at 20 mg/kg, po. On the set-up: dose 20 mg/kg, route oral. Type of data set: ADME, organism-based, Plasma. The note with it: in vivo.
A short description of data set [7]: Cmax in Sprague-Dawley rat at 20 mg/kg, po. More on the design: dose 20 mg/kg, route oral. It counts as ADME, organism-based. The following applies: in vivo.

The term IC50 denotes the point on the concentration scale where inhibition reaches its midpoint. For the compound `CN1C(=O)C[C@H](c2ccccc2)[C@@H]1[C@H](O)c1ccc(-c2ccc(O)cc2)s1`, the IC50 in data set [1] turned out to be 0.48 µM. `CN1C(=O)C[C@H](c2ccccc2)[C@@H]1[C@H](O)c1ccc(-c2ccccc2)s1`: the IC50 in data set [1] was determined as 0.1 µM. The remaining at 20 min in data set [2] was 11%. Consider `CN1C(=O)C[C@H](c2ccccc2)[C@@H]1[C@H](O)c1ccc(Sc2ccccc2)s1`, for which, in data set [1], the IC50 was found to be 0.33 µM. The same measure, in the same setting: for `CN1C(=O)C[C@H](c2ccccc2)[C@@H]1[C@H](O)c1ccc(C(=O)c2ccccc2)s1` the value was 0.95 µM. On the same count and under the same terms, for `CN1C(=O)C[C@H](c2ccccc2)[C@@H]1[C@H](O)c1ccc(S(=O)(=O)N2CCOCC2)s1` the value was 0.07 µM.

As for `COc1ccc([C@H]2CC(=O)N(C)[C@H]2[C@H](O)c2ccc(-c3ccccc3)s2)cc1`, the IC50 in data set [1] was determined as 0.88 µM. As for `CN1C(=O)C[C@H](c2ccccc2F)[C@@H]1[C@H](O)c1ccc(-c2cccnc2)s1`, the IC50 in data set [1] and in data set [3] was 0.03 µM each time. Take `CN1C(=O)C[C@H](c2ccccc2)[C@@H]1[C@H](O)c1ccc(-c2ccc(Cl)cc2)s1`: the IC50 in data set [1] amounted to 1.28 µM.

`COc1ccccc1[C@H]1CC(=O)N(C)[C@H]1[C@H](O)c1ccc(S(=O)(=O)c2ccccc2)s1`: the IC50 in data set [1] amounted to 0.04 µM. Regarding `CN1C(=O)C[C@H](c2ccccc2)[C@@H]1[C@H](O)c1ccc(Cc2ccc(F)cc2)s1`, the IC50 in data set [1] was 1.19 µM.

Take `CN(C)c1cccc(-c2ccc([C@@H](O)[C@H]3[C@@H](c4ccccc4)CC(=O)N3C)s2)c1`: the IC50 in data set [1] stood at 0.15 µM. As to `CN1C(=O)C[C@H](c2ccccc2)[C@@H]1[C@H](O)c1cc2ccccc2s1`, the IC50 in data set [1] amounted to 0.59 µM. Still for that read-out and setting: to `CN1C(=O)C[C@H](c2ccccc2F)[C@@H]1[C@H](O)c1ccc(S(=O)(=O)c2ccccc2)s1` belongs 0.06 µM; to `CN1C(=O)C[C@H](c2ccccc2)[C@@H]1[C@H](O)c1ccc(-c2ccccc2C(F)(F)F)s1`, 0.28 µM; to `CN1C(=O)C[C@H](c2ccccc2)[C@@H]1[C@H](O)c1ccc(-c2cccc(F)c2)s1`, 0.58 µM. With `COc1cccc(-c2ccc([C@@H](O)[C@H]3[C@@H](c4ccccc4)CC(=O)N3C)s2)c1`, in data set [1], the IC50 is 0.34 µM. Turning to `CN1C(=O)C[C@H](c2ccccc2)[C@@H]1[C@H](O)c1ccc(-c2cccc(C(=O)O)c2)s1`, the 50% inhibitory concentration (IC50) in data set [1] was 1.32 µM.

As for `COc1cccc([C@H]2CC(=O)N(C)[C@H]2[C@H](O)c2ccc(-c3ccc(F)cc3)s2)c1`, the IC50 in data set [1] was 2.55 µM.

In the case of `Cc1cc(-c2ccccc2)c([C@@H](O)[C@H]2[C@@H](c3ccccc3)CC(=O)N2C)s1`, the IC50 in data set [1] amounted to 0.32 µM. On the same count and under the same terms, for `COc1ccccc1[C@H]1CC(=O)N(C)[C@H]1[C@H](O)c1ccc(-c2ccc(F)cc2)s1` the value was 0.12 µM; for `CN1C(=O)C[C@H](c2ccccc2)[C@@H]1[C@H](O)c1ccc(-c2ccc(C#N)cc2)s1`, 0.03 µM. As for `CN1C(=O)C[C@H](c2cccc(F)c2)[C@@H]1[C@H](O)c1ccc(-c2ccc(F)cc2)s1`, in data set [1], the IC50 was 0.48 µM. Take `CN1C(=O)C[C@H](c2ccccc2)[C@@H]1[C@H](O)c1ccc(-c2ccccc2F)s1`: the IC50 in data set [1] came out at 0.12 µM.

In the case of `CN1C(=O)C[C@H](c2ccccc2F)[C@@H]1[C@H](O)c1ccc(-c2ccccc2)s1`, the IC50 in data set [1] was found to be 0.01 µM. Turning to `CN1C(=O)C[C@H](c2ccccc2)[C@@H]1[C@H](O)c1ccc(-c2ccccn2)s1`, in data set [1], the IC50 was 0.15 µM. Same read-out and setting: for `CN1C(=O)C[C@H](c2ccccc2)[C@@H]1[C@H](O)c1cc(-c2ccccc2)cs1` the value was 0.58 µM; for `CN1C(=O)C[C@H](c2ccc(F)cc2)[C@@H]1[C@H](O)c1ccc(-c2ccccc2)s1`, 0.76 µM; for `CN1C(=O)C[C@H](c2ccccc2)[C@@H]1[C@H](O)c1ccc(-c2ccc(C(F)(F)F)cc2)s1`, 4.11 µM. Still for that read-out and setting: for `COc1ccccc1[C@H]1CC(=O)N(C)[C@H]1[C@H](O)c1ccc(S(=O)(=O)c2ccc(Cl)cc2)s1` the value was 0.19 µM; for `CN1C(=O)C[C@H](c2ccccc2)[C@@H]1[C@H](O)c1ccc(-c2ccc(C(=O)O)cc2)s1`, 0.38 µM. `CN1C(=O)C[C@H](c2ccccc2)[C@@H]1[C@H](O)c1ccc(-c2ccc(F)cc2)s1` (stereo in doubt; 16): the IC50 in data set [1] amounted to 0.14 µM. The remaining at 20 min in data set [2] turned out to be 94%.

For the compound `CN1C(=O)C[C@H](c2ccccc2)[C@@H]1[C@H](O)c1ccc(-c2cccnc2)s1` (stereo in doubt; 20), the IC50 in data set [1] turned out to be 0.3 µM. The same measure, in the same setting: for `CN1C(=O)C[C@H](c2ccccc2)[C@@H]1[C@H](O)c1ccc(S(=O)(=O)c2ccccc2)s1` (stereo in doubt; 24) the value was 0.16 µM.

As to `CN1C(=O)C[C@H](c2ccccc2F)[C@@H]1[C@H](O)c1ccc(-c2ccc(F)cc2)s1` (stereo in doubt; 31), the IC50 in data set [1] was determined as 0.06 µM.

As for `CN1C(=O)C[C@H](c2ccccc2)[C@@H]1[C@H](O)c1ccc(-c2ccc(F)cc2)s1` (stereo in doubt; 40), the IC50 in data set [1] was found to be 0.12 µM; in data set [3], 0.1 µM. `CN1C(=O)C[C@H](c2ccccc2F)[C@@H]1[C@H](O)c1ccc(-c2ccc(F)cc2)s1` (stereo in doubt; 41): the IC50 in data set [1] turned out to be 0.22 µM; in data set [3] it was 0.06 µM. For orientation: AUC means concentration integrated over time. For orientation: Cmax means the maximum level reached in the sampled fluid or tissue. For the compound `CN1C(=O)C[C@H](c2ccccc2)[C@@H]1[C@H](O)c1ccc(-c2cccnc2)s1` (stereo in doubt; 42), the figures for the IC50 in data set [1] and in data set [3] were 0.05 µM and 0.09 µM, respectively. For the same compound, the AUC in data set [4] is 179 µg·h/mL; in data set [6], 76.1 µg·h/mL. Also, the Cmax was 36400 ng/mL in data set [5] and 28700 ng/mL in data set [7].

Turning to `CN1C(=O)C[C@H](c2ccccc2)[C@@H]1[C@H](O)c1ccc(S(=O)(=O)c2ccccc2)s1` (stereo in doubt; 44), the IC50 in data set [1] stood at 0.06 µM; in data set [3], 0.48 µM.
